Data set [1] deals with T1, RARα (Homo sapiens, UniProt P10276).
T1 construct: expressed in transfected cells; host or cells: CV-1 cells (ATCC)
T1 sequence (P10276 1-462): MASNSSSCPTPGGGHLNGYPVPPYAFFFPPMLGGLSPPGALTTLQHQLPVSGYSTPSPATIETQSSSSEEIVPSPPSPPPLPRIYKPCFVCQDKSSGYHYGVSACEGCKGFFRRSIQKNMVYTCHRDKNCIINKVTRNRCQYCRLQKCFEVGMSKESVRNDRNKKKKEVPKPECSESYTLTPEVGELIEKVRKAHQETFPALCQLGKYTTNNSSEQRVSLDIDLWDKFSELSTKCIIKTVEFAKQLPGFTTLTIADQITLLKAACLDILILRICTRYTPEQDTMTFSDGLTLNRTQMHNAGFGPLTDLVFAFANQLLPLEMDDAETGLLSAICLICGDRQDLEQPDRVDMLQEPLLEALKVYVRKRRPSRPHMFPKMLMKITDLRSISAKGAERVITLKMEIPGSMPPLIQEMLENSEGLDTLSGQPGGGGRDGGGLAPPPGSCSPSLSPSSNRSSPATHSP
Briefly: RARE-luciferase reporter assay in transfected CV-1 cells (affinity to retinoic acid receptor), RARα. It counts as cell-based. The conditions noted are these: treated 24 hours at final concentration 10^−4M, control group 1000. A digest of the protocol: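 CV-1 cells co-transfected with pECE-RARα or pECE-RARγ, RARE-tk-Luc reporter and β-galactosidase vector. Starting 24 h post-transfection, cells were treated for 24 h with compounds at a final 10^−4M; luciferase reporter read-out.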
(A reporter such as luciferase makes a cellular process visible.)

Data set [2] deals with T2, RARγ (Homo sapiens, UniProt P13631).
T2 construct: expressed in transfected cells; host or cells: CV-1 cells (ATCC)
T2 sequence (P13631 1-454): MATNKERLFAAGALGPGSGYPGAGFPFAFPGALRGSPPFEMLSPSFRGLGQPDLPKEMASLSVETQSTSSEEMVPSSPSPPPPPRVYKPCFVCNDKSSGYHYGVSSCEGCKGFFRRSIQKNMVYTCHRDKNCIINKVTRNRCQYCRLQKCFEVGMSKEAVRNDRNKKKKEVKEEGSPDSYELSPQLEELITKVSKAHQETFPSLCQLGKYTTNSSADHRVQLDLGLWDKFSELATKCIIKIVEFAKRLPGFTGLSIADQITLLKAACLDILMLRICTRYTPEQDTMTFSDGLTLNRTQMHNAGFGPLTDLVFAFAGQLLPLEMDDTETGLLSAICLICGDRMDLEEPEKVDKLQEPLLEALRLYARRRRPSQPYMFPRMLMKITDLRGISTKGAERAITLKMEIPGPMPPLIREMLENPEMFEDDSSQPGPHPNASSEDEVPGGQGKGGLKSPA
Briefly: RARE-luciferase reporter assay in transfected CV-1 cells (affinity to retinoic acid receptor), RARγ. It is filed as cell-based. The conditions noted are these: treated 24 hours at final concentration 10^−4M, control group 5000. The procedure, abridged: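 CV-1 cells in DMEM with 2.5% FBS, 5,000 per well, transfected 24 h after seeding with 10 ng pECE-RARα, pECE-RARγ, 100 ng RARE-tk-Luc reporter and 100 ng β-galactosidase vector. Read-out is RARE-driven luciferase.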

Data set [3] concerns procollagen type I. Briefly: Effect on collagen biosynthesis (procollagen type I ELISA) in human fibroblasts. It counts as cell-based. Conditions: 10^−4M, 24 hours, serum-free medium, relative to control group = 100. The procedure: Human fibroblasts were seeded into 24-well plate at 1×10^5 cells per well and then cultured to 90% of growth.
For each supernatant, procollagen production was measured with procollagen type I ELISA kit.

In data set [4] the test system is collagenase. Briefly: Inhibition of collagenase expression in human fibroblasts (ELISA kit). The conditions noted are these: 10^−4M, 24 hours, serum-free medium, relative to control group = 100. It counts as cell-based. The procedure, abridged: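 Serum-starved human fibroblasts were treated for 24 h with 10^−4M test material in serum-free DMEM. Collagenase in the culture fluid was measured by sandwich ELISA read at 405 nm. Values are expressed as % of the untreated control (=100).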
(In general: An ELISA detects its analyte on a solid surface through an enzyme-linked reagent.)

In data set [5] the test system is elastase. The experiment in a line: Inhibition of elastase expression in human fibroblasts (ELISA kit). The conditions noted are these: 10^−4M, 24 hours, serum-free medium, relative to control group = 100. It counts as cell-based. The procedure, abridged:
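Elastase in fibroblast culture fluid quantified by sandwich ELISA: 3 h capture, then chromophore-conjugated secondary antibody, then colour development, stopped with 1M sulfuric acid. Absorbance read at 405 nm. Expression given as % of the untreated control absorbance, with control set to 100.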

Data set [6] has as its system white guinea pigs. The experiment in a line: Phototoxicity test (UVA irradiation). The conditions noted are these: for Evaluation (phototoxicity): 1%(w/v) solution, UVA 15 J/cm^2; for Phototoxic index: 50 μl of 1%(w/v) solution, UVA 320~380 nm 15 J/cm^2, observed 24, 48 and 72 hours.
In data set [7] the test system is rabbits. The experiment in a line: Primary skin irritation test on animals (Draize P.I.I.). The conditions noted are these: depilated back; for P.I.I. (Primary Irritation Index): 0.5 ml of 1% solution in 1,3-butylene glycol:ethanol 7:3, observed 24 or 72 hours later; for Evaluation (skin irritation): 1% solution, according to Draize's P.I.I.

We go through ten compounds from patent US7282522B2, “Hydroxamic acid derivatives and the method for preparing thereof” (Amorepacific Corporation, priority 2003, dated 2007).

Structures are written as SMILES.

For `CCCCc1ccc(C(=O)N(C)c2ccc(C(=O)NO)cc2)cc1` [Example 18, N-[4-(N-hydroxycarbamoyl)phenyl]-N-methyl-[4-butylphenyl]carboxyamide], the “Luciferase activity RARα” value in data set [1] is 12900. The “Luciferase activity RARγ” value in data set [2] was found to be 11400. Also, in data set [3], the “Collagen biosynthesis (%)” value was found to be 130%. The “Collagenase expression (%)” value in data set [4] was determined as 78%. Further, the “Elastase expression (%)” value in data set [5] is reported as 79%. Moreover, in data set [6], the “Evaluation (phototoxicity)” value was “No phototoxicity (lower value than 0.5, criterion value to be estimated as no phototoxicity)” and the Phototoxic index is given as 0. Also, in data set [7], the “P.I.I. (Primary Irritation Index)” value came out at 0.321 and the “Evaluation (skin irritation)” value was “No irritation”.

For `CCCc1ccc(C(=O)N(C)c2ccc(C(=O)NO)cc2)cc1` [Example 16], the “Luciferase activity RARα” value in data set [1] is given as 12300. Besides, the “Luciferase activity RARγ” value in data set [2] is reported as 11200. In addition, in data set [3], the “Collagen biosynthesis (%)” value is reported as 120%. Also, the “Collagenase expression (%)” value in data set [4] turned out to be 80%. The “Elastase expression (%)” value in data set [5] amounted to 77%. In addition, in data set [6], the “Evaluation (phototoxicity)” value is “No phototoxicity (lower value than 0.5, criterion value to be estimated as no phototoxicity)” and the Phototoxic index amounted to 0. Moreover, in data set [7], the “P.I.I. (Primary Irritation Index)” value amounted to 0.567 and the “Evaluation (skin irritation)” value is “No irritation”.

With `CCCCc1ccc(N(C)C(=O)c2ccc(C(=O)NO)cc2)cc1` [Example 51, [4-(N-hydroxycarbamoyl)phenyl]-N-methyl-N-[4-butylphenyl]carboxyamide], in data set [1], the “Luciferase activity RARα” value worked out at 13400. Moreover, in data set [2], the “Luciferase activity RARγ” value stood at 12210. Moreover, in data set [3], the “Collagen biosynthesis (%)” value turned out to be 121%. Further, the “Collagenase expression (%)” value in data set [4] stood at 76%. For the same compound, the “Elastase expression (%)” value in data set [5] amounted to 77%. In addition, in data set [6], the “Evaluation (phototoxicity)” value was “No phototoxicity (lower value than 0.5, criterion value to be estimated as no phototoxicity)” and the Phototoxic index came to 0. Also, in data set [7], the “P.I.I. (Primary Irritation Index)” value was 0.331 and the “Evaluation (skin irritation)” value is recorded as “No irritation”.

Regarding `Cc1ccc(C(=O)N(C)c2ccc(C(=O)NO)cc2)cc1C` [Example 20, N-[4-(N-hydroxcarbamoly)phenyl]-N-methyl-[3,4-dimethylphenyl]carboxyamide], the “Luciferase activity RARα” value in data set [1] is recorded as 12200. Moreover, the “Luciferase activity RARγ” value in data set [2] turned out to be 12300. Moreover, the “Collagen biosynthesis (%)” value in data set [3] was found to be 122%. Moreover, in data set [4], the “Collagenase expression (%)” value turned out to be 68%. Moreover, the “Elastase expression (%)” value in data set [5] came out at 78%. Further, in data set [6], the “Evaluation (phototoxicity)” value was “No phototoxicity (lower value than 0.5, criterion value to be estimated as no phototoxicity)” and the Phototoxic index amounted to 0. In data set [7], the “P.I.I. (Primary Irritation Index)” value came to 0.421 and the “Evaluation (skin irritation)” value is “No irritation”.

As for `CC(C)c1ccc(C(=O)Nc2ccc(C(=O)NO)cc2)cc1` [Example 6, N-[4-(N-hydroxycarbamoyl)phenyl][4-isopropylphenyl]carboxyamide], the “Luciferase activity RARα” value in data set [1] was found to be 14500. In data set [2], the “Luciferase activity RARγ” value was determined as 12300. Also, the “Collagen biosynthesis (%)” value in data set [3] came to 124%. In addition, the “Collagenase expression (%)” value in data set [4] was 85%. Also, the “Elastase expression (%)” value in data set [5] is given as 79%. In data set [6], the “Evaluation (phototoxicity)” value is on record as “No phototoxicity (lower value than 0.5, criterion value to be estimated as no phototoxicity)” and the Phototoxic index is 0. Also, in data set [7], the “P.I.I. (Primary Irritation Index)” value is on record as 0.315 and the “Evaluation (skin irritation)” value is “No irritation”.

Take `O=C(NO)c1ccc(C(=O)NC23CC4CC(CC(C4)C2)C3)cc1` [Example 43, [4-(N-hydroxycarbamoyl)phenyl]-N-adamantyl carboxyamide]: the “Luciferase activity RARα” value in data set [1] came out at 18900. Also, the “Luciferase activity RARγ” value in data set [2] worked out at 10600. Moreover, the “Collagen biosynthesis (%)” value in data set [3] is reported as 130%. Also, in data set [4], the “Collagenase expression (%)” value was determined as 77%. In data set [5], the “Elastase expression (%)” value was determined as 70%. Moreover, in data set [6], the “Evaluation (phototoxicity)” value is given as “No phototoxicity (lower value than 0.5, criterion value to be estimated as no phototoxicity)” and the Phototoxic index came out at 0. Further, in data set [7], the “P.I.I. (Primary Irritation Index)” value was determined as 0.456 and the “Evaluation (skin irritation)” value is given as “No irritation”.

Consider `Cc1cccc(C(=O)N(C)c2ccc(C(=O)NO)cc2)c1` [Example 14, N-[4-(N-hydroxycarbamoyl)phenyl]-N-methyl-[3-methylphenyl]carboxyamide], for which the “Luciferase activity RARα” value in data set [1] turned out to be 18000. For the same compound, the “Luciferase activity RARγ” value in data set [2] came out at 10300. The “Collagen biosynthesis (%)” value in data set [3] turned out to be 115%. Moreover, the “Collagenase expression (%)” value in data set [4] is listed as 72%. Besides, the “Elastase expression (%)” value in data set [5] worked out at 75%. Further, in data set [6], the “Evaluation (phototoxicity)” value was “No phototoxicity (lower value than 0.5, criterion value to be estimated as no phototoxicity)” and the Phototoxic index is 0. Further, in data set [7], the “P.I.I. (Primary Irritation Index)” value is recorded as 0.231 and the “Evaluation (skin irritation)” value is reported as “No irritation”.

With `Cc1cccc(N(C)C(=O)c2ccc(C(=O)NO)cc2)c1` [Example 47, [4-(N-hydroxycarbamoyl)phenyl]-N-methyl-N-[3-methylphenyl]carboxyamide], the “Luciferase activity RARα” value in data set [1] came out at 12200. In data set [2], the “Luciferase activity RARγ” value amounted to 11700. Moreover, the “Collagen biosynthesis (%)” value in data set [3] is 112%. The “Collagenase expression (%)” value in data set [4] was 79%. Further, in data set [5], the “Elastase expression (%)” value stood at 83%. For the same compound, in data set [6], the “Evaluation (phototoxicity)” value was “No phototoxicity (lower value than 0.5, criterion value to be estimated as no phototoxicity)” and the Phototoxic index amounted to 0. Further, in data set [7], the “P.I.I. (Primary Irritation Index)” value turned out to be 0.367 and the “Evaluation (skin irritation)” value was “No irritation”.

With `CN(C(=O)c1ccc(C(=O)NO)cc1)C12CC3CC(CC(C3)C1)C2` [Example 54, [4-(N-hydroxycarbamoyl)phenyl]-N-adamantyl-N-methylcarboxyamide], the “Luciferase activity RARα” value in data set [1] was 22500. Moreover, the “Luciferase activity RARγ” value in data set [2] was 11000. Besides, the “Collagen biosynthesis (%)” value in data set [3] was 121%. Besides, the “Collagenase expression (%)” value in data set [4] is on record as 83%. In data set [5], the “Elastase expression (%)” value is on record as 67%. Also, in data set [6], the “Evaluation (phototoxicity)” value is reported as “No phototoxicity (lower value than 0.5, criterion value to be estimated as no phototoxicity)” and the Phototoxic index came out at 0. In data set [7], the “P.I.I. (Primary Irritation Index)” value was 0.567 and the “Evaluation (skin irritation)” value is recorded as “No irritation”.

Take `CN(C(=O)c1ccc(C(=O)NO)cc1)c1ccc(C(C)(C)C)cc1` [Example 52, [4-(N-hydroxycarbamoyl)phenyl]-N-methyl-N-[4-tert-butylphenyl]carboxamide]: in data set [1], the “Luciferase activity RARα” value is recorded as 12400. The “Luciferase activity RARγ” value in data set [2] was 12130. The “Collagen biosynthesis (%)” value in data set [3] worked out at 127%. For the same compound, the “Collagenase expression (%)” value in data set [4] is on record as 77%. For the same compound, in data set [5], the “Elastase expression (%)” value was 87%. In addition, in data set [6], the “Evaluation (phototoxicity)” value is “No phototoxicity (lower value than 0.5, criterion value to be estimated as no phototoxicity)” and the Phototoxic index worked out at 0. Moreover, in data set [7], the “P.I.I. (Primary Irritation Index)” value is recorded as 0.412 and the “Evaluation (skin irritation)” value is listed as “No irritation”.
